Where a SMILES comes first, the peptide text is derived from it. [ ]: non-standard residue; d: D form. The star is where a group is joined. Phe(4-F) = N[C@@H](Cc1ccc(F)cc1)C(=O)O; 2Nal = N[C@@H](Cc1ccc2ccccc2c1)C(=O)O; Cha = N[C@@H](CC1CCCCC1)C(=O)O; Aib = CC(C)(N)C(=O)O; Bz = O=C(c1ccccc1)*
Assays:
male C57BL/6J mice = experiment: Food intake assay, bolus ip administration in lean mice; type: in vivo, mouse; conditions: 3 h after administration, vs saline, mean ± SD
human Y2R [1] = target: T1, human Y2R (Homo sapiens, UniProt P49146); experiment: biochemical; type: binding
T1 sequence (P49146 1-381): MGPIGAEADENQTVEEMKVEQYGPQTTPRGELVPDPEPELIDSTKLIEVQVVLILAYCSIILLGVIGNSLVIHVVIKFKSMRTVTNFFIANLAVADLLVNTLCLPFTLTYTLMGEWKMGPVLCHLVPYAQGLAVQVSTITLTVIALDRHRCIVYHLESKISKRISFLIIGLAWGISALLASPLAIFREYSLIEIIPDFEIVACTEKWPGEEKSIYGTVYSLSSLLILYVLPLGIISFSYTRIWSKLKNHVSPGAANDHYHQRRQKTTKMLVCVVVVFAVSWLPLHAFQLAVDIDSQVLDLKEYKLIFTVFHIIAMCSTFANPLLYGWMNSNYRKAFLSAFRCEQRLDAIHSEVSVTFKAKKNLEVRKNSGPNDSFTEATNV

[2] = Stability in 20% mouse serum/PBS; type: in vitro ADME; conditions: mouse, 20% mouse serum in PBS
human Y2R [3] = target: T1, human Y2R; experiment: biochemical; type: biochemical
[4] = Pharmacokinetics of PYY analogues in mice; type: in vivo; conditions: C57BL/6J, mouse, plasma, 1 mg/kg

| SMILES | % food intake inhibition (male C57BL/6J mice; bolus ip 1000 nmol/kg) | IC50 (human Y2R [1]) | remaining at 0.5 h [2] | EC50 (human Y2R [3]) | % food intake inhibition (male C57BL/6J mice; bolus ip 250 nmol/kg) | % food intake inhibition (male C57BL/6J mice; bolus ip 500 nmol/kg) | % food intake inhibition (male C57BL/6J mice; bolus ip 2000 nmol/kg) | Cmax ([4]; ip) | MRT ([4]; ip) | Tmax ([4]; ip) | bioavailability ([4]; ip) | MRT ([4]; iv) | Vd ([4]; iv) | clearance ([4]; iv) |
| --- | --- | --- | --- | --- | --- | --- | --- | --- | --- | --- | --- | --- | --- | --- |
| CC[C@H](C)[C@H](NC(=O)[C@H](CC1CCCCC1)NC(=O)[C@H](Cc1c[nH]cn1)NC(=O)[C@H](CCCNC(=N)N)NC(=O)c1ccccc1)C(=O)N[C@@H](CC(N)=O)C(=O)N[C@@H](Cc1c[nH]c2ccccc12)C(=O)N[C@@H](CCCCN)C(=O)N[C@H](C(=O)N[C@@H](CCCNC(=N)N)C(=O)N[C@@H](CCC(N)=O)C(=O)N[C@@H](CCCNC(=N)N)C(=O)N[C@@H](CC1CCCCC1)C(N)=O)[C@@H](C)O [Compound 12] (Bz-RH[Cha]INWKTRQR[Cha]-NH2) | 4 ± 13% | 2.4 nM | 51% | 0.84 nM |  |  |  |  |  |  |  |  |  |  |
| CC[C@H](C)[C@H](NC(=O)[C@H](CC1CCCCC1)NC(=O)[C@H](Cc1c[nH]cn1)NC(=O)[C@H](CCCNC(=N)N)NC(=O)c1ccccc1)C(=O)N[C@@H](CC(N)=O)C(=O)N[C@@H](CC(C)C)C(=O)NC(C)(C)C(=O)N[C@H](C(=O)N[C@@H](CCCNC(=N)N)C(=O)N[C@@H](CCC(N)=O)C(=O)N[C@@H](CCCNC(=N)N)C(=O)N[C@@H](CC1CCCCC1)C(N)=O)[C@@H](C)O [Compound 10] (Bz-RH[Cha]INL[Aib]TRQR[Cha]-NH2) | 39 ± 3% | 4.8 nM | 94% | 1.1 nM | 3 ± 4% | 8 ± 7% | 60 ± 7% |  |  |  |  |  |  |  |
| CC[C@H](C)[C@H](NC(=O)[C@H](Cc1ccc2ccccc2c1)NC(=O)[C@H](Cc1c[nH]cn1)NC(=O)[C@H](CCCNC(=N)N)NC(=O)c1ccccc1)C(=O)N[C@@H](CC(N)=O)C(=O)N[C@@H](Cc1c[nH]c2ccccc12)C(=O)N[C@H](C(=O)N[C@H](C(=O)N[C@@H](CCCNC(=N)N)C(=O)N[C@@H](CCC(N)=O)C(=O)N[C@@H](CCCNC(=N)N)C(=O)N[C@@H](CC1CCCCC1)C(N)=O)[C@@H](C)O)[C@@H](C)CC [Compound 15] (Bz-RH[2Nal]INWITRQR[Cha]-NH2) |  | 19 nM | 100% | 7.3 nM |  | 19 ± 7% |  |  |  |  |  |  |  |  |
| CC[C@H](C)[C@H](NC(=O)[C@H](CC1CCCCC1)NC(=O)[C@H](Cc1c[nH]cn1)NC(=O)[C@H](CCCNC(=N)N)NC(=O)c1ccccc1)C(=O)N[C@@H](CC(N)=O)C(=O)N[C@@H](Cc1ccc(F)cc1)C(=O)N[C@H](C(=O)N[C@H](C(=O)N[C@@H](CCCNC(=N)N)C(=O)N[C@@H](CCC(N)=O)C(=O)N[C@@H](CCCNC(=N)N)C(=O)N[C@@H](CC1CCCCC1)C(N)=O)[C@@H](C)O)[C@@H](C)CC [Compound 6] (Bz-RH[Cha]IN[Phe(4-F)]ITRQR[Cha]-NH2) | 40 ± 5% | 11 nM | 96% | 2.9 nM |  | 18 ± 5% |  |  |  |  |  |  |  |  |
| CC(C)C[C@H](NC(=O)[C@H](CC(N)=O)NC(=O)[C@H](CC1CCCCC1)NC(=O)[C@H](CC1CCCCC1)NC(=O)[C@H](Cc1cnc[nH]1)NC(=O)[C@H](CCCNC(=N)N)NC(=O)c1ccccc1)C(=O)NC(C)(C)C(=O)N[C@H](C(=O)N[C@@H](CCCNC(=N)N)C(=O)N[C@@H](CCC(N)=O)C(=O)N[C@@H](CCCNC(=N)N)C(=O)N[C@@H](CC1CCCCC1)C(N)=O)[C@@H](C)O [Compound 21, benzoyl-[Cha^27,28,36,Aib^31]PYY(25–36)] (Bz-RH[Cha][Cha]NL[Aib]TRQR[Cha]-NH2) |  |  |  |  |  |  |  | 406 nM | 75 min | 15 min | 6.8% | 27 min | 0.073 L/kg | 2.7 mL/min/kg |
| CC[C@H](C)[C@H](NC(=O)[C@H](Cc1ccc(O)cc1)NC(=O)[C@H](C)NC(=O)[C@H](CCCNC(=N)N)NC(=O)c1ccccc1)C(=O)N[C@@H](CC(N)=O)C(=O)N[C@@H](CC(C)C)C(=O)N[C@H](C(=O)N[C@H](C(=O)N[C@@H](CCCNC(=N)N)C(=O)N[C@@H](CCC(N)=O)C(=O)N[C@@H](CCCNC(=N)N)C(=O)N[C@@H](Cc1ccc(O)cc1)C(N)=O)[C@@H](C)O)[C@@H](C)CC [Compound 1, benzoyl-[Ala^26,Ile^28,31]PYY(25–36)] (Bz-RAYINLITRQRY-NH2) |  | 16 nM | 5% | 1.7 nM |  |  | 25 ± 7% |  |  |  |  |  |  |  |
| CC[C@H](C)[C@H](NC(=O)[C@H](CC1CCCCC1)NC(=O)[C@H](Cc1c[nH]cn1)NC(=O)[C@H](CCCNC(=N)N)NC(=O)c1ccccc1)C(=O)N[C@@H](CC(N)=O)C(=O)N[C@@H](CC(C)C)C(=O)N[C@H](C(=O)N[C@H](C(=O)N[C@@H](CCCNC(=N)N)C(=O)N[C@@H](CCC(N)=O)C(=O)N[C@@H](CCCNC(=N)N)C(=O)N[C@@H](Cc1ccc(O)cc1)C(N)=O)[C@@H](C)O)[C@@H](C)CC [Compound 3] (Bz-RH[Cha]INLITRQRY-NH2) | 17 ± 7% | 15 nM | 10% | 1.9 nM |  |  | 39 ± 7% |  |  |  |  |  |  |  |
| CC[C@H](C)[C@H](NC(=O)[C@H](CC1CCCCC1)NC(=O)[C@H](Cc1c[nH]cn1)NC(=O)[C@H](CCCNC(=N)N)NC(=O)c1ccccc1)C(=O)N[C@@H](CC(N)=O)C(=O)N[C@@H](CC(C)C)C(=O)N[C@@H](CC1CCCCC1)C(=O)N[C@H](C(=O)N[C@@H](CCCNC(=N)N)C(=O)N[C@@H](CCC(N)=O)C(=O)N[C@@H](CCCNC(=N)N)C(=O)N[C@@H](CC1CCCCC1)C(N)=O)[C@@H](C)O [Compound 8] (Bz-RH[Cha]INL[Cha]TRQR[Cha]-NH2) | 46 ± 8% | 25 nM | 114% | 7.3 nM |  | 17 ± 8% |  |  |  |  |  |  |  |  |

— article PMC6044503 (ACS Omega, 2017)
